Measured values from the NIST ThermoML archive (doi:10.1016/j.jct.2019.03.040).
± gives the expanded uncertainty stated by the source.

Legend:
[1] = Liquid; for thermal diffusivity: 101.33 kPa, Laser flash apparatus
[2] = molar heat capacity at constant pressure; settings: 101.33 kPa, Liquid, Small sample (50 mg) DSC

CCCOC(=O)CCC(C)=O [propyl levulinate]
Settings | Critical pressure [kPa] | Critical temperature [K] | molar heat capacity at constant pressure [J/K/mol] | thermal diffusivity [m2/s]
[1], 303.15 K | – | – | – | 7.82e-08 ± 4.2e-09
[1], 313.15 K | – | – | – | 7.73e-08 ± 4.2e-09
[1], 323.15 K | – | – | – | 7.62e-08 ± 4.1e-09
[1], 333.15 K | – | – | – | 7.53e-08 ± 4e-09
[1], 343.15 K | – | – | – | 7.37e-08 ± 4e-09
[1], 353.15 K | – | – | – | 7.26e-08 ± 3.9e-09
[1], 363.15 K | – | – | – | 7.22e-08 ± 3.9e-09
[1], Resistive pulse heating | 2670 ± 80 | 674 ± 7 | – | –
[2], 303.04 K | – | – | 319.87 ± 7.9 | –
[2], 303.54 K | – | – | 320.34 ± 7.9 | –
[2], 304.04 K | – | – | 320.5 ± 7.9 | –
[2], 304.54 K | – | – | 320.03 ± 7.9 | –
[2], 305.04 K | – | – | 320.5 ± 7.9 | –
[2], 305.54 K | – | – | 320.34 ± 7.9 | –
[2], 306.04 K | – | – | 320.5 ± 7.9 | –
[2], 306.54 K | – | – | 320.19 ± 7.9 | –
[2], 307.04 K | – | – | 320.19 ± 7.9 | –
[2], 307.54 K | – | – | 320.82 ± 7.9 | –
[2], 308.04 K | – | – | 320.82 ± 7.9 | –
[2], 308.54 K | – | – | 321.45 ± 7.9 | –
[2], 309.04 K | – | – | 320.82 ± 7.9 | –
[2], 309.54 K | – | – | 321.14 ± 7.9 | –
[2], 310.04 K | – | – | 321.61 ± 7.9 | –
[2], 310.54 K | – | – | 321.14 ± 7.9 | –
[2], 311.04 K | – | – | 321.29 ± 7.9 | –
[2], 311.54 K | – | – | 321.29 ± 7.9 | –
[2], 312.04 K | – | – | 322.08 ± 7.9 | –
[2], 312.54 K | – | – | 321.45 ± 7.9 | –
[2], 313.04 K | – | – | 322.24 ± 7.9 | –
[2], 313.54 K | – | – | 322.08 ± 7.9 | –
[2], 314.04 K | – | – | 322.24 ± 7.9 | –
[2], 314.54 K | – | – | 322.24 ± 7.9 | –
[2], 315.04 K | – | – | 322.56 ± 7.9 | –
[2], 315.54 K | – | – | 322.88 ± 7.9 | –
[2], 316.04 K | – | – | 322.72 ± 7.9 | –
[2], 316.54 K | – | – | 322.24 ± 7.9 | –
[2], 317.04 K | – | – | 322.56 ± 7.9 | –
[2], 317.54 K | – | – | 323.03 ± 7.9 | –
[2], 318.04 K | – | – | 323.98 ± 7.9 | –
[2], 318.54 K | – | – | 323.19 ± 7.9 | –
[2], 319.04 K | – | – | 323.67 ± 7.9 | –
[2], 319.54 K | – | – | 324.14 ± 7.9 | –
[2], 320.04 K | – | – | 323.35 ± 7.9 | –
[2], 320.54 K | – | – | 323.83 ± 7.9 | –
[2], 321.04 K | – | – | 323.67 ± 7.9 | –
[2], 321.54 K | – | – | 323.83 ± 7.9 | –
[2], 322.04 K | – | – | 323.83 ± 7.9 | –
[2], 322.54 K | – | – | 324.62 ± 7.9 | –
[2], 323.04 K | – | – | 324.46 ± 7.9 | –
[2], 323.54 K | – | – | 324.46 ± 7.9 | –
[2], 324.04 K | – | – | 324.3 ± 7.9 | –
[2], 324.54 K | – | – | 324.93 ± 7.9 | –
[2], 325.04 K | – | – | 324.93 ± 7.9 | –
[2], 325.54 K | – | – | 325.25 ± 7.9 | –
[2], 326.04 K | – | – | 325.57 ± 7.9 | –
[2], 326.54 K | – | – | 325.72 ± 7.9 | –
[2], 327.04 K | – | – | 325.88 ± 7.9 | –
[2], 327.54 K | – | – | 325.72 ± 7.9 | –
[2], 328.04 K | – | – | 326.04 ± 8.1 | –
[2], 328.54 K | – | – | 326.67 ± 8.1 | –
[2], 329.04 K | – | – | 325.72 ± 7.9 | –
[2], 329.54 K | – | – | 326.51 ± 8.1 | –
[2], 330.04 K | – | – | 326.2 ± 8.1 | –
[2], 330.54 K | – | – | 326.83 ± 8.1 | –
[2], 331.04 K | – | – | 326.83 ± 8.1 | –
[2], 331.54 K | – | – | 327.15 ± 8.1 | –
[2], 332.04 K | – | – | 326.83 ± 8.1 | –
[2], 332.54 K | – | – | 327.15 ± 8.1 | –
[2], 333.04 K | – | – | 326.83 ± 8.1 | –
[2], 333.54 K | – | – | 327.31 ± 8.1 | –
[2], 334.04 K | – | – | 327.62 ± 8.1 | –
[2], 334.54 K | – | – | 328.1 ± 8.1 | –
[2], 335.04 K | – | – | 328.41 ± 8.1 | –
[2], 335.54 K | – | – | 328.73 ± 8.1 | –
[2], 336.04 K | – | – | 328.41 ± 8.1 | –
